In patent publication US20190352276A1, “INHIBITORS OF BRUTON'S TYROSINE KINASE” (Joint Stock Company "Biocad", priority 2016, published 2019):

Experiment: Chemical stability in artificial gastric fluid (SGF without enzymes); further: time not given here
Settings: 10 μM in SGF without enzymes, pH=1.4, 37° C.

Compound | Amount of substance in the sample in % (chemical stability) [%]
C=CC(=O)N1CCC[C@@H](n2nc(-c3ccc(C(=O)Nc4ccccn4)cc3)c3cncc(Cl)c32)C1 [BCD-BTK -201] | 100
C=CC(=O)N1CCC[C@@H](n2nc(-c3ccc(Oc4ccncc4C#N)cc3)c3cncc(Cl)c32)C1 [BCD-BTK -202, (R)-4-(4-(1-(1-acryloylpiperidin-3-yl)-7-chloro-1H-pyrazolo[4,3-c]pyridin-3-yl)phenoxy)nicotinonitrile] | 95.5
C=CC(=O)N1CCC[C@@H](n2nc(-c3ccc(Oc4ccncc4C(N)=O)cc3)c3cncc(Cl)c32)C1 [BCD-BTK -203, (R)-4-(4-(1-(1-acryloylpiperidin-3-yl)-7-chloro-1H-pyrazolo[4,3-c]pyridin-3-yl)phenoxy)nicotinamide] | 100
C=CC(=O)N1CCC[C@@H](n2nc(-c3ccc(-n4ccc(=O)cc4)cc3F)c3cncc(Cl)c32)C1 [BCD-BTK -204, (R)-1-(4-(1-(1-acryloylpiperidin-3-yl)-7-chloro-1H-pyrazolo[4,3-c]pyridin-3-yl)-3-fluorophenyl)pyridin-4(1H)-one] | 100
C=CC(=O)N1CCC[C@@H](n2nc(-c3ccc(-n4ccc(=O)cc4)c(F)c3)c3cncc(Cl)c32)C1 [BCD-BTK -205, (R)-1-(4-(1-(1-acryloylpiperidin-3-yl)-7-chloro-1H-pyrazolo[4,3-c]pyridin-3-yl)-2-fluorophenyl)pyridin-4(1H)-one] | 100
C=CC(=O)N1CCC[C@@H](n2nc(-c3cnc(-n4ccc(=O)c(C#N)c4)nc3)c3cncc(Cl)c32)C1 [BCD-BTK -206, (R)-1-(5-(1-(1-acryloylpiperidin-3-yl)-7-chloro-1H-pyrazolo[4,3-c]pyridin-3-yl)pyrimidin-2-yl)-4-oxo-1,4-dihydropyridine-3-carbonitrile] | 100
C=CC(=O)N1CCC[C@@H](n2nc(-c3cnc(-n4ccc(=O)c(C(N)=O)c4)nc3)c3cncc(Cl)c32)C1 [BCD-BTK -207, (R)-1-(5-(1-(1-acryloylpiperidin-3-yl)-7-chloro-1H-pyrazolo[4,3-c]pyridin-3-yl)pyrimidin-2-yl)-4-oxo-1,4-dihydropyridine-3-carboxamide] | 100
C=CC(=O)N1CCC[C@@H](n2nc(-c3ccc(-n4ccc(=O)c(C#N)c4)cc3)c3cncc(Cl)c32)C1 [BCD-BTK -208, (R)-1-(4-(1-(1-acryloylpiperidin-3-yl)-7-chloro-1H-pyrazolo[4,3-c]pyridin-3-yl)phenyl)-4-oxo-1,4-dihydropyridine-3-carbonitrile] | 100
C=CC(=O)N1CCC[C@@H](n2nc(-c3ccc(C(=O)Nc4cc(C(F)(F)F)ccn4)cc3)c3cncc(Cl)c32)C1 [BCD-BTK -210, (R)-4-(1-(1-acryloylpiperidin-3-yl)-7-chloro-1H-pyrazolo[4,3-c]pyridin-3-yl)-N-(4-(trifluoromethyl)pyridin-2-yl)benzamide] | 96.1
C=CC(=O)N1CCC[C@@H](n2nc(-c3ccc(Oc4ccncc4)cc3)c3cncc(F)c32)C1 [BCD-BTK -211, (R)-1-(3-(7-fluoro-3-(4-(pyridin-4-yloxy)phenyl)-1H-pyrazolo[4,3-c]pyridin-1-yl)piperidin-1-yl)prop-2-en-1-one] | 100
C=CC(=O)N1CCC[C@@H](n2nc(-c3ccc(C(=O)Nc4ccc(F)cn4)cc3)c3cncc(Cl)c32)C1 [BCD-BTK -212, (R)-4-(1-(1-acryloylpiperidin-3-yl)-7-chloro-1H-pyrazolo[4,3-c]pyridin-3-yl)-N-(5-fluoropyridin-2-yl)benzamide] | 100
C=CC(=O)N1CCC[C@@H](n2nc(-c3ccc(Oc4ccncc4C#N)cc3)c3cncc(C#N)c32)C1 [BCD-BTK -213, (R)-1-(1-acryloylpiperidin-3-yl)-3-(4-(3-cyanopyridin-4-yloxy)phenyl)-1H-pyrazolo[4,3-c]pyridine-7-carbonitrile] | 97.4
C=CC(=O)N1CCC[C@@H](n2nc(-c3ccc(C(=O)Nc4cc(C(F)(F)CC)ccn4)cc3)c3cncc(F)c32)C1 [BCD-BTK -214, (R)-4-(1-(1-acryloylpiperidin-3-yl)-7-fluoro-1H-pyrazolo[4,3-c]pyridin-3-yl)-N-(4-(1,1-difluoropropyl)pyridin-2-yl)benzamide] | 100
C=CC(=O)N1CCC[C@@H](n2nc(-c3ccc(C(=O)Nc4cc(C(F)(F)CC)ccn4)cc3)c3cncc(Cl)c32)C1 [BCD-BTK -215, (R)-4-(1-(1-acryloylpiperidin-3-yl)-7-chloro-1H-pyrazolo[4,3-c]pyridin-3-yl)-N-(4-(1,1-difluoropropyl)pyridin-2-yl)benzamide] | 100
C=CC(=O)N1CCC[C@@H](n2nc(-c3ccc(Oc4cccnc4C#N)cc3)c3cncc(C#N)c32)C1 [BCD-BTK -216, (R)-1-(1-acryloylpiperidin-3-yl)-3-(4-(2-cyanopyridin-3-yloxy)phenyl)-1H-pyrazolo[4,3-c]pyridine-7-carbonitrile] | 96.3
C=CC(=O)N1CCC[C@@H](n2nc(-c3ccc(Oc4ccncc4C#N)cc3)c3cncc(F)c32)C1 [BCD-BTK -217, (R)-4-(4-(1-(1-acryloylpiperidin-3-yl)-7-fluoro-1H-pyrazolo[4,3-c]pyridin-3-yl)phenoxy)nicotinonitrile] | 95.3
C=CC(=O)N1CCC[C@@H](n2nc(-c3ccc(Oc4cccnc4C#N)cc3)c3cncc(Cl)c32)C1 [BCD-BTK -218, 3-(4-{7-chloro-1-[1-(prop-2-enoyl)piperidin-3-yl]-1H-pyrazolo[4,3-c]pyridin-3-yl}phenoxy)pyridine-2-carbonitrile] | 96
C=CC(=O)N1CCC[C@@H](n2nc(-c3ccc(Oc4ccncc4)cc3)c3cncc(C#N)c32)C1 [BCD-BTK - 123, (R)-1-(1-acryloylpiperidin-3-yl)-3-(4(pyridin-4-yloxy)phenyl)-1H-pyrazolo[4,3-c]pyridin-7-carbonitrile] | 97
C=CC(=O)N1CCC[C@@H](n2nc(-c3ccc(Oc4ccncc4)cc3)c3cncc(Cl)c32)C1 [BCD-BTK - 125, (R)-1-(1-acryloylpiperidin-3-yl)-7-chloro-3-(4-(pyridin-4-yloxy)phenyl)-1H-pyrazolo[4,3-c]pyridine] | 100
C=CC(=O)N1CCC[C@@H](n2nc(-c3ccc(Oc4ccncc4)cc3)c3c(N)ncc(C#N)c32)C1 [BCD-BTK - 134, (R)-1-(1-acryloylpiperidin-3-yl)-4-amino-3-(4-(pyridin-4-yloxy)phenyl)-1H-pyrazolo[4,3-c]pyridin-7-carbonitrile] | 100
C=CC(=O)N1CCC[C@@H](n2nc(-c3ccc(Oc4ccncc4)cc3)c3c(N)ncc(Cl)c32)C1 [BCD-BTK - 139, (R)-1-(1-acryloylpiperidin-3-yl)-7-chloro-3-(4-(pyridin-4-yloxy)phenyl)-1H-pyrazolo[4,3-c]pyridin-4-amine] | 100
C=CC(=O)N1CCC[C@@H](n2nc(-c3ccc(C(=O)Nc4cccc(F)n4)cc3)c3cncc(F)c32)C1 [BCD-BTK - 248, (R)-4-(1-(1-acryloylpiperidin-3-yl)-7-fluoro-1H-pyrazolo[4,3-c]pyridin-3-yl)-N-(6-fluoropyridin-2-yl)benzamide] | 100
C=CC(=O)N1CCC[C@@H](n2nc(-c3ccc(C(=O)Nc4ncccc4F)cc3)c3cncc(F)c32)C1 [BCD-BTK - 249, (R)-4-(1-(1-acryloylpiperidin-3-yl)-7-fluoro-1H-pyrazolo[4,3-c]pyridin-3-yl)-N-(3-fluoropyridin-2-yl)benzamide] | 100
C=CC(=O)N1CCC[C@@H](n2nc(-c3ccc(C(=O)Nc4cccc(F)n4)cc3)c3c(N)ncc(Cl)c32)C1 [BCD-BTK - 250, (R)-4-(1-(1-acryloylpiperidin-3-yl)-4-amino-7-chloro-1H-pyrazolo[4,3-c]pyridin-3-yl)-N-(6-fluoropyridin-2-yl)benzamide] | 100
C=CC(=O)N1CCC[C@@H](n2nc(-c3ccc(C(=O)Nc4cc(C(F)(F)F)ccn4)cc3)c3c(N)ncc(Cl)c32)C1 [BCD-BTK - 251, (R)-4-(1-(1-acryloylpiperidin-3-yl)-4-amino-7-chloro-1H-pyrazolo[4,3-c]pyridin-3-yl)-N-(4-(trifluoromethyl)pyridin-2-yl)benzamide] | 100
C=CC(=O)N1CCC[C@@H](n2nc(-c3ccc(C(=O)Nc4cc(C(F)(F)CCC)ccn4)cc3)c3cncc(Cl)c32)C1 [BCD-BTK - 252, (R)-4-(1-(1-acryloylpiperidin-3-yl)-7-chloro-1H-pyrazolo[4,3-c]pyridin-3-yl)-N-(4-(1,1-difluorobutyl)pyridin-2-yl)benzamide] | 94.4
C=CC(=O)N1CCC[C@@H](n2nc(-c3ccc(C(=O)Nc4cc(C(F)(F)CCC)ccn4)cc3)c3c(N)ncc(Cl)c32)C1 [BCD-BTK - 254, (R)-4-(1-(1-acryloylpiperidin-3-yl)-4-amino-7-chloro-1H-pyrazolo[4,3-c]pyridin-3-yl)-N-(4-(1,1-difluorobutyl)pyridin-2-yl)benzamide] | 100
C=CC(=O)N1CCC[C@@H](n2nc(-c3ccc(Oc4cccnc4C(N)=O)cc3)c3cncc(F)c32)C1 [BCD-BTK - 255, (R)-3-(4-(1-(1-acryloylpiperidin-3-yl)-7-fluoro-1H-pyrazolo[4,3-c]pyridin-3-yl)phenoxy)picolinamide] | 100
CC#CC(=O)N1CC(n2nc(-c3ccc(Oc4ccncc4)cc3)c3cncc(Cl)c32)C1 [BCD-BTK - 281, 1-(3-(7-chloro-3-(4-(pyridin-4-yloxy)phenyl)-1H-pyrazolo[4,3-c]pyridin-1-yl)azetidin-1-yl)but-2-yn-1-one] | 100
